According to US5834452A, “1- or 6-hydroxylated steroids” (Roussel Uclaf, priority 1996, dated 1998):

Columns and labels:
[1] = target: T1, Human progesterone receptor (HPR) (Homo sapiens, UniProt P06401); assay: Relative bond affinity (RBA), recombinant human progestogen receptor, charcoal dextran technique; format: binding; details: relative to Trimegestone
T1 construct: made in house; host or cells: SF9 insect cells (ATCC CRL1711), baculovirus, lysate supernatant
T1 sequence (P06401 1-933): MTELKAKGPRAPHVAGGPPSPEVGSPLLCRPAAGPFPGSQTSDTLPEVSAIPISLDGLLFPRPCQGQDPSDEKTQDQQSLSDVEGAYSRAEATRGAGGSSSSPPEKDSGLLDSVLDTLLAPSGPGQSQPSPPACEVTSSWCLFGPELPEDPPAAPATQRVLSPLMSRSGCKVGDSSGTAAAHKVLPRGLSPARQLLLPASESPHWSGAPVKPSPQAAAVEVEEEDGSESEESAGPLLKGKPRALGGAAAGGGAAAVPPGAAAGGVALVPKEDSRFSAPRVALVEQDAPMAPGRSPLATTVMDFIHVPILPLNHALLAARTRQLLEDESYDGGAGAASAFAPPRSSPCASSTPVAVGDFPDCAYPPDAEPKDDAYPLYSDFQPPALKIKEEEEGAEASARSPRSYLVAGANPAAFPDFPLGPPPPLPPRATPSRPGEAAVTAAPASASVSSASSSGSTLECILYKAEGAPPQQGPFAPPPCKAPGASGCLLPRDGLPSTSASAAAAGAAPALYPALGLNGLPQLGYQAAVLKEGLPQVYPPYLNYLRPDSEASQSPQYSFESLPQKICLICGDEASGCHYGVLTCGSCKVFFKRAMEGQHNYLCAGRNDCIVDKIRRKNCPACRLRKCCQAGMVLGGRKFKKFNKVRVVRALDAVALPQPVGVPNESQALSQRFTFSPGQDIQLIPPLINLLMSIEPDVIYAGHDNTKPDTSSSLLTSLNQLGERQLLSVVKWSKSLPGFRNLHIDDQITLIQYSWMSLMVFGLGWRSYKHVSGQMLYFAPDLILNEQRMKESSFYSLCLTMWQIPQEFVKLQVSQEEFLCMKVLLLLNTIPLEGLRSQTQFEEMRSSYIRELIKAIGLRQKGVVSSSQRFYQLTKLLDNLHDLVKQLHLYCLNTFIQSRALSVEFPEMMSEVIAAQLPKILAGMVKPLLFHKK
Source text: The human recombinant receptor (HGR, HPR, HAR, HMR, HER) was used.
Human progesterone receptor (HPR):
The recombinant human progestogen receptor was obtained by the superexpression in a cell system of insects--Baculovirus, according to the methodology described by Webb et al (Journal of Methods in Cell and Molecular Biology, (1990) Vol. 2 No. 4, p. 173-188) and the application of which was described for the expression of human hormonal receptors, for example the human glucocorticoid receptor (Srinivasan et al, Molecular Endocrinology, (1990) Vol. 4 No. 2, p. 209-216.
The BaculoGold Transfection Kit (PharMingen, reference 21000K) was used to insert the cDNA fragment described by Kastner et al (The EMBO Journal, (1990), Vol. 9 No. 5, p. 1603-1614), containing the region coding for the human progestogen receptor and to prepare the corresponding recombinant virus. The recombinant virus obtained in this way was used to express the progestogen receptor in SF9 insect cells (ATCC CRL1711), according to the known methodology cited previously.
2×10^7 to 2.5×10^7 SF9 cells were cultured in a 175 ml "Falcon" flask in the TNM-FH medium supplemented with 10% fetal calf serum (FCS) and with 50 micrograms/ml of gentamycin. After infection, then incubation at 27° C. for 40 to 42 hours, the cells were taken up in 1 ml of lysis buffer (1), lysed by 2 cycles of freezing-thawing (-80° C./ 0° C.), then centrifuged at 4° C. for 30 minutes at 20,900 g. The supernatant, containing the recombinant human progestogen receptor, was stored in liquid nitrogen in quantities of 1 ml.
The supernatant was diluted at the time of use with 10 mM Tris buffer, 0.25M saccharose, HCl pH 7.4 containing 0.1% of gelatin and then incubated at 0° C. for 24 hours with a constant concentration (T) of tritiated 17α, 21-dimethyl-19-nor-Δ^4,9 pregnadiene-3,20-dione in the presence of increasing concentrations of either unlabelled progesterone (0-2500×10^-9 M), or the unlabelled product to be tested (1 to 25000×10^-9 M). The concentration of bound tritiated 17,21-dimethyl-19-nor-Δ^4,9 -pregnadiene-3,20-dione (B) was then measured in each incubate using the charcoal dextran adsorption technique.
Calculation of the relative bond affinity (RBA).
The following two curves were drawn: the percentage of bound tritiated hormone B/BO as a function of the logarithm of the concentration of unlabelled reference hormone or as a function of the logarithm of the concentration of unlabelled test product. The straight line of the following equation was determined: […]
The relative bond affinity (RBA) of the test product was determined by the equation: […]

[2] = tested on: endometrial proliferation (uterine lace); assay: Progestomimetic activity: endometrial transformation in the rabbit (Clauberg-McPhail test); format: in vivo; set-up: key to Maximal activity on the uterine lace (McPhail index) / Average uterine lace (McPhail Index): McPhail scale 0–4 with 0.5 steps (endometrial proliferation); details: for Average uterine lace (McPhail Index): day 8 to day 11
Experimental: 2. --Determination of the progestomimetic activity of the products of the invention: Endometrial transformation in the rabbit. The animals used were impuberal female rabbits which were 40-45 days old. The animals were treated with estradiol (5 ug/0.2 ml/rabbit in solution of corn oil, 10% ethanol) by subcutaneous route from day 1 to day 5, then the product to be studied was administered from day 8 to day 11. On day 12, the animals were sacrificed and a median portion of each uterine cornua was removed from each animal and fixed in Bouin's liquid for histological study. After fixing, the samples were dehydrated, included, cut, mounted, the paraffin was removed and then the sample was stained with hemalum-eosin-saffron. […] Then, for each of the cornua, a semi-quantitative evaluation of the endometrial proliferation (uterine lace) was carried out by the McPhail scale from 0 to 4 with 0.5 intermediates and the two figures were averaged. Similarly, the degree of hypertrophy of the cornua was evaluated by the same scale. At higher magnification, morphological observations of the mucous membrane or the myometrium could possibly be formulated. The 1-OH metabolite (product A) was tested at doses of 10, 100, 1000 μg/kg by subcutaneous route as well as orally at a dose of 1000 μg/kg. The 6-OH metabolite (product B) was tested at doses of 100, 1000 and 10000 μg/kg subcutaneously. As a control, progesterone was administered at doses of 100 and 1000 μg/kg by subcutaneous route. The averages were produced for the uterine lace (McPhail Index).

RBA for the human progestogen receptor, times weaker than that of Trimegestone [1] [times]	Compound	Average uterine lace (McPhail Index) ([2]; rabbit, 0,01 mg/kg, s/c)	Average uterine lace (McPhail Index) ([2]; rabbit, 0,1 mg/kg, s/c)	Hypertrophy of the cornua ([2]; rabbit, 1 mg/kg p/o route versus s/c route)	Average uterine lace (McPhail Index) ([2]; rabbit, 1 mg/kg, per os)	Average uterine lace (McPhail Index) ([2]; rabbit, 1 mg/kg, s/c, 1 mg/kg)	Maximal activity on the uterine lace (McPhail index) ([2]; rabbit, 1000 μg/kg by subcutaneous route (note))	Average uterine lace (McPhail Index) ([2]; rabbit, 1 mg/kg, s/c)
9	C[C@H](O)C(=O)[C@@]1(C)CC[C@H]2[C@@H]3CCC4=CC(=O)C[C@H](O)C4=C3CC[C@@]21C [Product A, [1α, 17β-(S)]-1-hydroxy-17-(2-hydroxy-1-oxopropyl)-17-methyl-Δ^4,9-estradiene-3-one]	3,8	3,8	stronger hypertrophy of the cornua	4	3,8	–	–
–	CC(=O)[C@H]1CC[C@H]2[C@@H]3CCC4=CC(=O)CC[C@]4(C)[C@H]3CC[C@]12C [Progesterone, reference compound]	–	1,8	–	–	–	4	3,8
